pEC50: −log10 of the molar value.
Target: IRE1a (Homo sapiens, UniProt O75460)
Test: IRE1a Endoribonuclease Nanoluciferase Assay (XBP1 luciferase reporter in 293T cells)
Type: cell-based
Parameters: endogenous in cells; host or cells: 293T
Details: XBP1 nanoluciferase reporter in 293T cells, ER stressor; tested as the salt named
Protocol: Compounds disclosed herein were assessed for disruption of IRE1 signaling using a IRE1a Endoribonuclease Nanoluciferase Assay. […] About 24 hours later, the cells were transfected with Effectene. In a 15 mL tube, the following was added: 2 ug XBP1 luciferase reporter plasmid (PGK-Luc2-P2A-XBP1u-Nanoluciferase-PEST); 300 ul EC buffer; and 16 ul Enhancer, followed by incubation at room temp for 5 minutes. […] 2.6 mL cDMEM media was added. Old media was aspirated from the cells, followed by addition of 7 mL fresh media. Full transfection mixture was added dropwise to cells. Cells were incubated for 6 hours, followed by trypsinization, centrifugation and resuspension in 11 mL fresh cDMEM media. 100 μL of cells were plated per a well in a 96 well plate. A day later, ER stressors of choice +/− inhibitors were added. To harvest, media was aspirated from cells completely, then 50 uL 1× passive lysis buffer (Promega: E1941) was added per well and put on shaker (300 rpm) for 30 minutes at room temperature. […] 15 uL OneGlo (nanoluciferase kit, Promega N1630) was added. Plates were spun down, placed on shaker (300 rpm) for 10 minutes. Plates were read on luminometer, 1000 ms integration time per well. 15 uL Stop and Glo (nanoluciferase kit) was added. Plates were spun down, placed on shaker (300 rpm) for 10 minutes. Plates were read on luminometer, 1000 ms second integration time per well.

IRE1a, sequence (O75460 19-977): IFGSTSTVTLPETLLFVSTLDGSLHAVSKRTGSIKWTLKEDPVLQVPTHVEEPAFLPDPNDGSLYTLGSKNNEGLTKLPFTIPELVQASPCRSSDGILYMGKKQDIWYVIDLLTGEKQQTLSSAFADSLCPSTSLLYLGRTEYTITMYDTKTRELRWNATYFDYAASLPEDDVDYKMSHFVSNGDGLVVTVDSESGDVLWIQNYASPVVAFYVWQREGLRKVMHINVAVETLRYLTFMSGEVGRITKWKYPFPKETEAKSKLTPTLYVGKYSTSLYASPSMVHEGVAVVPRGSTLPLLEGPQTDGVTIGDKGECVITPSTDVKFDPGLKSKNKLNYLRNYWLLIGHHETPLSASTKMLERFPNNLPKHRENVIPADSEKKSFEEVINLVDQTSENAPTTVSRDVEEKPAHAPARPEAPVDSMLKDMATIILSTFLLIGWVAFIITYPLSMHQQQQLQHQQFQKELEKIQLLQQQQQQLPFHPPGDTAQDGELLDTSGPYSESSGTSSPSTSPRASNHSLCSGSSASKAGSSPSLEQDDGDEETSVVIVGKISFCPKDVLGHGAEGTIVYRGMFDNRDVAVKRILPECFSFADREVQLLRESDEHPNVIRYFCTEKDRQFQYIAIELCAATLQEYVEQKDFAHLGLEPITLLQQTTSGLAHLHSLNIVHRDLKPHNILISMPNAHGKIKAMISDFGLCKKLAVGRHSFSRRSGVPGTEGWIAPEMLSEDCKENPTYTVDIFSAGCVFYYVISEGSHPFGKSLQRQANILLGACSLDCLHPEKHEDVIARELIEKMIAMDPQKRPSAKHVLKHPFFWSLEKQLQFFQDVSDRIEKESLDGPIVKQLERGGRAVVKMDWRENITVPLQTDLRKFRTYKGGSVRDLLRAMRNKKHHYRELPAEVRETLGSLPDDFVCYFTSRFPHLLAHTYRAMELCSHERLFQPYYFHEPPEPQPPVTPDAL

SMILES	pEC50
CCc1cc(-c2ccc(NS(=O)(=O)c3ccccc3Cl)nc2C)cc2cnc(N[C@H]3CC[C@H](NC)CC3)nc12 [Compound 122, 2-chloro-N-(5-(8-ethyl-2-(((1r,4r)-4-(methylamino)cyclohexyl)amino)quinazolin-6-yl)-6-methylpyridin-2-yl)benzenesulfonamide]	> 8.30
COc1nc(NS(=O)(=O)c2ccccc2Cl)ccc1-c1cc(C(C)(F)F)c2nc(N[C@H]3CC[C@H](N(C)C)CC3)ncc2c1 [Compound 124, 2-chloro-N-(5-(8-(1,1-difluoroethyl)-2-(((1r,4r)-4-(dimethylamino)cyclohexyl)amino)quinazolin-6-yl)-6-methoxypyridin-2-yl)benzenesulfonamide]	> 8.30
CCc1cc(-c2ccc(NS(=O)(=O)c3ccccc3Cl)nc2C)cc2cnc(NC3CCC(N(C)CC)CC3)nc12 (stereo not shown) [Compound 125, 2-chloro-N-(5-(8-ethyl-2-(((1r,4r)-4-(ethyl(methyl)amino)cyclohexyl)amino)quinazolin-6-yl)-6-methylpyridin-2-yl)benzenesulfonamide]	> 8.30
CCc1cc(-c2cc(F)c(NS(=O)(=O)c3ccccc3Cl)nc2OC)cc2cnc(NC3CCC(NC)CC3)nc12 (stereo not shown) [Compound 127, 2-chloro-N-(5-(8-ethyl-2-(((1r,4r)-4-(methylamino)cyclohexyl)amino)quinazolin-6-yl)-3-fluoro-6-methoxypyridin-2-yl)benzenesulfonamide]	> 8.30
CCc1cc(-c2cc(F)c(NS(=O)(=O)c3ccccc3Cl)nc2OC)cc2cnc(N[C@H]3CC[C@H](N(C)C)CC3)nc12 [Compound 128, 2-chloro-N-(5-(2-(((1r,4r)-4-(dimethylamino)cyclohexyl)amino)-8-ethylquinazolin-6-yl)-3-fluoro-6-methoxypyridin-2-yl)benzenesulfonamide]	> 8.30
CCc1cc(-c2ccc(NS(=O)(=O)c3ccccc3Cl)nc2C)cc2cnc(N[C@H]3CC[C@H](N(C)CC4CCC4)CC3)nc12 [Compound 130, 2-chloro-N-(5-(2-(((1r,4r)-4-((cyclobutylmethyl)(methyl)amino)cyclohexyl)amino)-8-ethylquinazolin-6-yl)-6-methylpyridin-2-yl)benzenesulfonamide]	> 8.30
Cc1nc(NS(=O)(=O)c2ccccc2Cl)ccc1-c1cc(C(C)(F)F)c2nc(N[C@H]3CC[C@H](N(C)C)CC3)ncc2c1 [Compound 131, 2-chloro-N-(5-(8-(1,1-difluoroethyl)-2-(((1r,4r)-4-(dimethylamino)cyclohexyl)amino)quinazolin-6-yl)-6-methylpyridin-2-yl)benzenesulfonamide]	> 8.30
CCc1cc(-c2ccc(NS(=O)(=O)c3ccccc3Cl)nc2C)cc2cnc(N[C@H]3CC[C@H](N(C)CCOC)CC3)nc12 [Compound 132, 2-chloro-N-(5-(8-ethyl-2-(((1r,4r)-4-((2-methoxyethyl)(methyl)amino)cyclohexyl)amino)quinazolin-6-yl)-6-methylpyridin-2-yl)benzenesulfonamide]	> 8.30
COc1nc(NS(=O)(=O)c2ccccc2Cl)ccc1-c1cc(C)c2nc(N[C@H]3CC[C@H](N(C)C)CC3)ncc2c1 [Compound 133, 2-chloro-N-(5-(2-(((1r,4r)-4-(dimethylamino)cyclohexyl)amino)-8-methylquinazolin-6-yl)-6-methoxypyridin-2-yl)benzenesulfonamide]	> 8.30
COc1nc(NS(=O)(=O)c2ccccc2Cl)ccc1-c1cc(C(F)(F)F)c2nc(N[C@H]3CC[C@H](N(C)C)CC3)ncc2c1 [Compound 135, 2-chloro-N-(5-(2-(((1r,4r)-4-(dimethylamino)cyclohexyl)amino)-8-(trifluoromethyl)quinazolin-6-yl)-6-methoxypyridin-2-yl)benzenesulfonamide]	> 8.30
COCc1cc(-c2ccc(NS(=O)(=O)c3ccccc3Cl)nc2OC)cc2cnc(N[C@H]3CC[C@H](N(C)C)CC3)nc12 [Compound 137, 2-chloro-N-(5-(2-(((1r,4r)-4-(dimethylamino)cyclohexyl)amino)-8-(methoxymethyl)quinazolin-6-yl)-6-methoxypyridin-2-yl)benzenesulfonamide]	> 8.30
CCc1cc(-c2ccc(NS(=O)(=O)c3ccccc3Cl)nc2OC)cc2cnc(N[C@H]3CC[C@@H](N(C)C)CC3)nc12 [Compound 141, 2-chloro-N-(5-(2-(((1s,4s)-4-(dimethylamino)cyclohexyl)amino)-8-ethylquinazolin-6-yl)-6-methoxypyridin-2-yl)benzenesulfonamide]	5.00 to 7.00
COc1nc(NS(=O)(=O)c2ccccc2Cl)c(F)cc1-c1cc(C)c2nc(N[C@H]3CC[C@H](N(C)C)CC3)ncc2c1 [Compound 145, 2-chloro-N-(5-(2-(((1r,4r)-4-(dimethylamino)cyclohexyl)amino)-8-methylquinazolin-6-yl)-3-fluoro-6-methoxypyridin-2-yl)benzenesulfonamide]	> 8.30
COc1nc(NS(=O)(=O)c2ccccc2Cl)ccc1-c1cc(F)c2nc(N[C@H]3CC[C@H](N(C)C)CC3)ncc2c1 [Compound 148, 2-chloro-N-(5-(2-(((1r,4r)-4-(dimethylamino)cyclohexyl)amino)-8-fluoroquinazolin-6-yl)-6-methoxypyridin-2-yl)benzenesulfonamide]	> 8.30
COc1nc(NS(=O)(=O)c2ccccc2Cl)c(F)cc1-c1ccc2nc(N[C@H]3CC[C@H](N(C)C)CC3)ncc2c1 [Compound 149, 2-chloro-N-(5-(2-(((1r,4r)-4-(dimethylamino)cyclohexyl)amino)quinazolin-6-yl)-3-fluoro-6-methoxypyridin-2-yl)benzenesulfonamide]	7.30 to 8.30
CN[C@H]1CC[C@H](Nc2ncc3cc(-c4cc(F)c(NS(=O)(=O)c5ccccc5Cl)nc4OC)ccc3n2)CC1 [Compound 150, 2-chloro-N-(3-fluoro-6-methoxy-5-(2-(((1r,4r)-4-(methylamino)cyclohexyl)amino)quinazolin-6-yl)pyridin-2-yl)benzenesulfonamide]	7.30 to 8.30
CCc1cc(-c2ccc(NS(=O)(=O)c3ccccc3Cl)nc2C)cc2cnc(N[C@@H]3CC[C@@H](N(C)C)C[C@@H]3F)nc12 [Compound 151, 2-chloro-N-(5-(2-(((1R,2S,4R)-4-(dimethylamino)-2-fluorocyclohexyl)amino)-8-ethylquinazolin-6-yl)-6-methylpyridin-2-yl)benzenesulfonamide]	> 8.30
CCc1cc(-c2ccc(NS(=O)(=O)c3cccc(Cl)c3Cl)nc2C)cc2cnc(N[C@H]3CC[C@H](N(C)C)CC3)nc12 [Compound 152, 2,3-dichloro-N-(5-(2-(((1r,4r)-4-(dimethylamino)cyclohexyl)amino)-8-ethylquinazolin-6-yl)-6-methylpyridin-2-yl)benzenesulfonamide]	> 8.30
Cc1nc(NS(=O)(=O)c2ccccc2Cl)c(F)cc1-c1ccc2nc(N[C@H]3CC[C@H](N(C)C)CC3)ncc2c1 [Compound 153, 2-chloro-N-(5-(2-(((1r,4r)-4-(dimethylamino)cyclohexyl)amino)quinazolin-6-yl)-3-fluoro-6-methylpyridin-2-yl)benzenesulfonamide]	7.30 to 8.30
CCc1cc(-c2cnc(NS(=O)(=O)c3ccccc3Cl)nc2OC)cc2cnc(NC3CCC(N(C)C)CC3)nc12 (stereo not shown) [Compound 154, 2-chloro-N-(5-(2-(((1r,4r)-4-(dimethylamino)cyclohexyl)amino)-8-ethylquinazolin-6-yl)-4-methoxypyrimidin-2-yl)benzenesulfonamide]	> 8.30
COc1nc(NS(=O)(=O)c2ccccc2Cl)c(F)cc1-c1cc(F)c2nc(N[C@H]3CC[C@H](N(C)C)CC3)ncc2c1 [Compound 155, 2-chloro-N-(5-(2-(((1r,4r)-4-(dimethylamino)cyclohexyl)amino)-8-fluoroquinazolin-6-yl)-3-fluoro-6-methoxypyridin-2-yl)benzenesulfonamide]	7.00 to 7.30
CCc1cc(-c2ncc(NS(=O)(=O)c3ccccc3Cl)nc2OC)cc2cnc(N[C@H]3CC[C@H](N(C)C)CC3)nc12 [Compound 157, 2-chloro-N-(5-(2-(((1r,4r)-4-(dimethylamino)cyclohexyl)amino)-8-ethylquinazolin-6-yl)-6-methoxypyrazin-2-yl)benzenesulfonamide]	> 8.30
CCc1cc(-c2ccc(NS(=O)(=O)c3cccc(F)c3Cl)nc2C)cc2cnc(N[C@H]3CC[C@H](N(C)C)CC3)nc12 [Compound 158, 2-chloro-N-(5-(2-(((1r,4r)-4-(dimethylamino)cyclohexyl)amino)-8-ethylquinazolin-6-yl)-6-methylpyridin-2-yl)-3-fluorobenzenesulfonamide]	> 8.30
CCc1cc(-c2nnc(NS(=O)(=O)c3ccccc3Cl)cc2OC)cc2cnc(N[C@H]3CC[C@H](N(C)C)CC3)nc12 [Compound 159, 2-chloro-N-(6-(2-(((1r,4r)-4-(dimethylamino)cyclohexyl)amino)-8-ethylquinazolin-6-yl)-5-methoxypyridazin-3-yl)benzenesulfonamide]	7.30 to 8.30
CCc1cc(-c2ccc(NS(=O)(=O)c3cccc(C)c3Cl)nc2C)cc2cnc(N[C@H]3CC[C@H](N(C)C)CC3)nc12 [Compound 160, 2-chloro-N-(5-(2-(((1r,4r)-4-(dimethylamino)cyclohexyl)amino)-8-ethylquinazolin-6-yl)-6-methylpyridin-2-yl)-3-methylbenzenesulfonamide]	> 8.30

Reference: patent US12479818B2, “Treatment of fibrosis with IRE1 small molecule inhibitors” (Cornell University, priority 2019, dated 2025)
